From patent publication US9085557B2, “Quinolylpiperazino substituted thiolactone compounds and process for the preparation thereof” (Council of Scientific and Industrial Research, priority 2010, dated 2015)
≈ marks a conversion by molar mass, not a printed value. Where two headings read alike, the source gives them in different places.

Tested on: M. tuberculosis H37Rv (ATCC 27294)
Experiment: MIC determination by broth dilution against M. tuberculosis H37Rv
Assay type: cell-based, Mycobacterium tuberculosis
Details: M. tuberculosis H37Rv, broth dilution, 3 weeks at 37° C., read visually (no turbidity)
[1] = Mycobacterium tuberculosis, 504 h, read-out: MIC

For `CC1=C(OCCCCCN2CCN(c3ccnc4cc(C(F)(F)F)ccc34)CC2)C(C)SC1=O` (stereo not drawn) [Compound 3a, 3,5-dimethyl-4-[(5-4-[7-(trifluoromethyl)-4-quinolyl]piperazinopentyl)oxy]-5H-thiophen-2-one], the MIC was 16 µg/mL (≈ 32.4 µM).
`CC1=C(OCCCCCCN2CCN(c3ccnc4cc(C(F)(F)F)ccc34)CC2)C(C)SC1=O` (stereo not drawn) [Compound 3b, 3,5-dimethyl-4-[(6-4-[7-(trifluoromethyl)-4-quinolyl]piperazinohexyl)oxy]-5H-thiophen-2-one] showed an MIC of 16 µg/mL (≈ 31.5 µM).
With `CC1=C(OCCCCCCCCN2CCN(c3ccnc4cc(C(F)(F)F)ccc34)CC2)C(C)SC1=O` (stereo not drawn) [Compound 3c, 3,5-dimethyl-4-[(8-4-[7-(trifluoromethyl)-4-quinolyl]piperazinooctyl)oxy]-5H-thiophen-2-one] the MIC was 16 µg/mL (≈ 29.9 µM).
`CC1=C(OCCCCCCCCCN2CCN(c3ccnc4cc(C(F)(F)F)ccc34)CC2)C(C)SC1=O` (stereo not drawn) [Compound 3d, 3,5-dimethyl-4-[(9-4-[7-(trifluoromethyl)-4-quinolyl]piperazinononyl)oxy]-5H-thiophen-2-one] was tested, and the MIC was 16 µg/mL (≈ 29.1 µM).
In the case of `CC1=C(OCCCCCCCCCCN2CCN(c3ccnc4cc(C(F)(F)F)ccc34)CC2)C(C)SC1=O` (stereo not drawn) [Compound 3e, 3,5-dimethyl-4-[(10-4-[7-(trifluoromethyl)-4-quinolyl]piperazinodecyl)oxy]-5H-thiophen-2-one], the MIC is reported as 16 µg/mL (≈ 28.4 µM).
For `CC1=C(OCCCCCN2CCN(c3ccnc4cc(Cl)ccc34)CC2)C(C)SC1=O` (stereo not drawn) [Compound 4a, 3,5-dimethyl-4-(5-[4-(7-chloro-4-quinolyl)piperazino]pentyloxy)-5H-thiophen-2-one], the MIC [1] was 16 µg/mL (≈ 34.8 µM).
For `CC1=C(OCCCCCCN2CCN(c3ccnc4cc(Cl)ccc34)CC2)C(C)SC1=O` (stereo not drawn) [Compound 4b, 3,5-dimethyl-4-(6-[4-(7-chloro-4-quinolyl)piperazino]hexyloxy)-5H-thiophen-2-one], the MIC [1] was 16 µg/mL (≈ 33.8 µM).
`CC1=C(OCCCCCCCCN2CCN(c3ccnc4cc(Cl)ccc34)CC2)C(C)SC1=O` (stereo not drawn) [Compound 4c, 3,5-dimethyl-4-(8-[4-(7-chloro-4-quinolyl)piperazino]octyloxy)-5H-thiophen-2-one] was tested, and the MIC [1] was 8 µg/mL (≈ 15.9 µM).
In the case of `CC1=C(OCCCCCCCCCN2CCN(c3ccnc4cc(Cl)ccc34)CC2)C(C)SC1=O` (stereo not drawn) [Compound 4d, 3,5-dimethyl-4-(9-[4-(7-chloro-4-quinolyl)piperazino]nonyloxy)-5H-thiophen-2-one], the MIC [1] is reported as 8 µg/mL (≈ 15.5 µM).
With `CC1=C(OCCCCCCCCCCN2CCN(c3ccnc4cc(Cl)ccc34)CC2)C(C)SC1=O` (stereo not drawn) [Compound 4e, 3,5-dimethyl-4-(10-[4-(7-chloro-4-quinolyl)piperazino]decyloxy)-5H-thiophen-2-one] the MIC [1] was 8 µg/mL (≈ 15.1 µM).
Work on `CC1=C(OCCCCCCCCCCCCN2CCN(c3ccnc4cc(Cl)ccc34)CC2)C(C)SC1=O` (stereo not drawn) [Compound 4f, 3,5-dimethyl-4-(12-[4-(7-chloro-4-quinolyl)piperazino]dodecyloxy)-5H-thiophen-2-one] yielded an MIC [1] of 8 µg/mL (≈ 14.3 µM).
Molecule `CC1=C(OCCCCCN2CCCN(c3ccnc4cc(C(F)(F)F)ccc34)CC2)C(C)SC1=O` (stereo not drawn) [Compound 5a, 3,5-dimethyl-4-[(5-4-[7-(trifluoromethyl)-4-quinolyl]-1,4-diazepan-1-ylpentyl)oxy]-5H-thiophen-2-one] has an MIC of 16 µg/mL (≈ 31.5 µM).
In the case of `CC1=C(OCCCCCCN2CCCN(c3ccnc4cc(C(F)(F)F)ccc34)CC2)C(C)SC1=O` (stereo not drawn) [Compound 5b, 3,5-dimethyl-4-[(6-4-[7-(trifluoromethyl)-4-quinolyl]-1,4-diazepan-1-ylhexyl)oxy]-5H-thiophen-2-one], the MIC is reported as 16 µg/mL (≈ 30.7 µM).
`CC1=C(OCCCCCCCCN2CCCN(c3ccnc4cc(C(F)(F)F)ccc34)CC2)C(C)SC1=O` (stereo not drawn) [Compound 5c, 3,5-dimethyl-4-[(8-4-[7-(trifluoromethyl)-4-quinolyl]-1,4-diazepan-1-yloctyl)oxy]-5H-thiophen-2-one] showed an MIC of 16 µg/mL (≈ 29.1 µM).
Molecule `CC1=C(OCCCCCCCCCN2CCCN(c3ccnc4cc(C(F)(F)F)ccc34)CC2)C(C)SC1=O` (stereo not drawn) [Compound 5d, 3,5-dimethyl-4-[(9-4-[7-(trifluoromethyl)-4-quinolyl]-1,4-diazepan-1-ylnonyl)oxy]-5H-thiophen-2-one] has an MIC of 16 µg/mL (≈ 28.4 µM).
